Consider 19 compounds from ChEMBL document CHEMBL3351502, “Flavones: an important scaffold for medicinal chemistry” (Eur J Med Chem, 2014).

Usually ED50 stands for the midpoint of the dose-response relation. A word on the Ki: it is a measure of affinity in units of concentration, obtained from inhibition or displacement. Higher therefore signals a looser hold on the target. What is called MIC is the lowest concentration that inhibits growth of the organism. The low end stands for a more susceptible organism, the high end for a less susceptible organism. One may read the IC50 as the midpoint of a concentration-inhibition curve. Higher therefore signals weaker potency in that assay. Usually inhibition stands for the change of the read-out against control, counted positive when it falls. A lower inhibition goes with little suppression. By EC50 is commonly meant the midpoint of the concentration-response curve. High values mean a less potent agent, low ones a more potent agent.

In brackets after ≈: the same amount, converted by molar mass.

For one series, the species on record is Rattus norvegicus. Kind of series: Antiulcer activity in rat assessed as protection from indomethacin-induced gastric damage. The series is classed as functional. As to conditions: Stomach.
The target of the next series is T1, Adenosine receptor A3 (Homo sapiens, UniProt P0DMS8).
T1 sequence (P0DMS8 whole entry): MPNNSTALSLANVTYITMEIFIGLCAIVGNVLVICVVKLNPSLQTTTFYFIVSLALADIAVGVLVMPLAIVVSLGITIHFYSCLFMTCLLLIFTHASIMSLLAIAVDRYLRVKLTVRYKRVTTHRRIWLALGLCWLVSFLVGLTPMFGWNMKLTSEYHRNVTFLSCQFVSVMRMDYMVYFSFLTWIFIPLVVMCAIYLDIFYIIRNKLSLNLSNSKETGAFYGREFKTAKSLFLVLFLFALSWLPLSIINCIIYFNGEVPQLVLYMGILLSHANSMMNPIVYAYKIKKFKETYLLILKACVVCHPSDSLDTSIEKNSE
Kind of series: Binding affinity to human adenosine A3 receptor.

The subject of the next series is Staphylococcus aureus. As to the kind of experiment: Antimicrobial activity against Staphylococcus aureus. Format: functional.
Series [1] deals with T2, Human immunodeficiency virus type 1 integrase (Human immunodeficiency virus 1, UniProt Q7ZJM1). As to the kind of experiment: Inhibition of HIV-1 integrase strand transfer activity.
The target in series [2] is T2, Human immunodeficiency virus type 1 integrase. As to the kind of experiment: Inhibition of HIV-1 integrase terminal cleavage activity.
Another series deals with Plasmodium falciparum. As to the kind of experiment: Antimicrobial activity against Plasmodium falciparum. The series is classed as functional, organism-based.
Series [3] addresses T3, Succinate-semialdehyde dehydrogenase, mitochondrial (Homo sapiens, UniProt P51649).
T3 sequence (P51649 whole entry): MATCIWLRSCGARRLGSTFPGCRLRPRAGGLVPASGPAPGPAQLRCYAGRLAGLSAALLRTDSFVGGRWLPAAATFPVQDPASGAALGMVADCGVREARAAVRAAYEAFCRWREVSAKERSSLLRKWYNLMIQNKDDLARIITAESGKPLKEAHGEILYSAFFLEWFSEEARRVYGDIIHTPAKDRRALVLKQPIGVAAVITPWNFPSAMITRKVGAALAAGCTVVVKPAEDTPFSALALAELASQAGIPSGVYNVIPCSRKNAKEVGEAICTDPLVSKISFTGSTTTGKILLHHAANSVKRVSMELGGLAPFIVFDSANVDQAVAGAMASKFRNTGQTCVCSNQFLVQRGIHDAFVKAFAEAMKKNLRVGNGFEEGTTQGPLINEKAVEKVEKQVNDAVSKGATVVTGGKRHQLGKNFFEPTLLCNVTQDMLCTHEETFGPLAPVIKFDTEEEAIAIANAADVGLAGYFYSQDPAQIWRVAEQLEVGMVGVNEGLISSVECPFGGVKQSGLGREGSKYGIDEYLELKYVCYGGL
As to the kind of experiment: Inhibition of SSADH (unknown origin).

The target of a further series is Acetylcholinesterase (Homo sapiens, UniProt P22303). Kind of series: Inhibition of AChE (unknown origin).
Series [4] concerns the target Benzodiazepine receptors; peripheral & central. As to the kind of experiment: Binding affinity to benzodiazepine receptor (unknown origin). Format: protein assay, Homo sapiens.
The next series relates to LNCaP. Kind of series: Downregulation of prostate specific antigen secretion in human LNCAP cells. Format: functional, cell-based.
The species named for another series is Homo sapiens. Kind of series: Inhibition of alpha glucosidase (unknown origin) at 0.5 mg/ml.
The target of series [5] is Xanthine dehydrogenase/oxidase (Homo sapiens, UniProt P47989). Kind of series: Inhibition of xanthine oxidase (unknown origin).
Series [6] is described as follows: Inhibition of advanced glycation end product formation. Format: physicochemical.
A short description of series [7]: Competitive inhibition of muscarinic receptor (unknown origin). On the set-up: species or system Homo sapiens.
Series [8] has as its target T4, Cystic fibrosis transmembrane conductance regulator (Homo sapiens, UniProt P13569). Kind of series: Inhibition of forskolin-stimulated CFTR (unknown origin).
In series [9] the target is T4, Cystic fibrosis transmembrane conductance regulator. As to the kind of experiment: Stimulation of CFTR (unknown origin).
The target of series [10] is Telomerase reverse transcriptase (Homo sapiens, UniProt O14746). Kind of series: Inhibition of telomerase activity (unknown origin).
Another series relates to Leishmania. As to the kind of experiment: Leishmanicidal activity against Leishmania. The series is classed as functional, organism-based.
Series [11] in a line: Inhibition of alpha glucosidase (unknown origin). On the set-up: species or system Homo sapiens.
Series [12] has as its target 4-aminobutyrate aminotransferase, mitochondrial (Homo sapiens, UniProt P80404). As to the kind of experiment: Inhibition of GABA transaminase (unknown origin).

T2 sequence (Q7ZJM1 whole entry): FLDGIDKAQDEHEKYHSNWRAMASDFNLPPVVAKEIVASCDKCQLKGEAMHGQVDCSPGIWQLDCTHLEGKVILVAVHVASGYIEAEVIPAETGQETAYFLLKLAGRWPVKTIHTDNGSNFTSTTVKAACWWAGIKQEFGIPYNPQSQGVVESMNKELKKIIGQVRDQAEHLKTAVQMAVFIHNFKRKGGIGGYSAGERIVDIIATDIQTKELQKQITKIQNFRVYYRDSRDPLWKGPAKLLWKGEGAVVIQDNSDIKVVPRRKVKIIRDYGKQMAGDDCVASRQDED
Xanthine dehydrogenase/oxidase, sequence (P47989 whole entry): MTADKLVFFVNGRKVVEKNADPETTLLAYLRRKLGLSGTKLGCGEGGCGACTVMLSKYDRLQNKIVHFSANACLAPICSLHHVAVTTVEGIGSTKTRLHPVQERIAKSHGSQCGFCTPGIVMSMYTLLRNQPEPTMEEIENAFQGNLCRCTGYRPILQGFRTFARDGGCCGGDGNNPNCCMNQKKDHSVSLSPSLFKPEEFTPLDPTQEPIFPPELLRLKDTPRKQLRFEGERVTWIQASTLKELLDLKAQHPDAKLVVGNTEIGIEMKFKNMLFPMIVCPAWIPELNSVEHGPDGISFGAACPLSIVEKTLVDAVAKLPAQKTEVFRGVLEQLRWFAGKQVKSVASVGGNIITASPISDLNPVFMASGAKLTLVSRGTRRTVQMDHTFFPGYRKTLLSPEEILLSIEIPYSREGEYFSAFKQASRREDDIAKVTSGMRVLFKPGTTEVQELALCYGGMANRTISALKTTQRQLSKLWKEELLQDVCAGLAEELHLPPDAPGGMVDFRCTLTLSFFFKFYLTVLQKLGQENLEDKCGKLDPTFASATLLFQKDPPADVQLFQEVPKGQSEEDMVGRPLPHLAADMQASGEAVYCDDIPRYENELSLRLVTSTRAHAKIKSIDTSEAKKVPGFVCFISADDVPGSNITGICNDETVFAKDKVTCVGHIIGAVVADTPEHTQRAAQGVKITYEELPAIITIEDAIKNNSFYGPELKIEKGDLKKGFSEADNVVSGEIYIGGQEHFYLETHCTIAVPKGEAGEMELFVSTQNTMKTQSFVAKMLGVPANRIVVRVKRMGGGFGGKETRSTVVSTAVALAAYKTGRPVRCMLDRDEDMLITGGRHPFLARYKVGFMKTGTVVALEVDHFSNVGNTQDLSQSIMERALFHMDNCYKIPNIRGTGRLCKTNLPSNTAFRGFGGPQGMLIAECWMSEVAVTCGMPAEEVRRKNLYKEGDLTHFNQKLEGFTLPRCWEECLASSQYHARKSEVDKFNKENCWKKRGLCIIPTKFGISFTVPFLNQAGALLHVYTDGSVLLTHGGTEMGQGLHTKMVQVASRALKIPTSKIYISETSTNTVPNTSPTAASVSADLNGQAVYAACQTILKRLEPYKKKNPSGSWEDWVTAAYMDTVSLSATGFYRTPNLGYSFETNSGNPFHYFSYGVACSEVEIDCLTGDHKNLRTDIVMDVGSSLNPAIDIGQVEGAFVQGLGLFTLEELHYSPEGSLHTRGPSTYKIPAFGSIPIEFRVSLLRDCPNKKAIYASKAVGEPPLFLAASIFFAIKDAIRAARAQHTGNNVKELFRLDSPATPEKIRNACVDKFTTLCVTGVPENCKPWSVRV
Acetylcholinesterase, sequence (P22303 whole entry): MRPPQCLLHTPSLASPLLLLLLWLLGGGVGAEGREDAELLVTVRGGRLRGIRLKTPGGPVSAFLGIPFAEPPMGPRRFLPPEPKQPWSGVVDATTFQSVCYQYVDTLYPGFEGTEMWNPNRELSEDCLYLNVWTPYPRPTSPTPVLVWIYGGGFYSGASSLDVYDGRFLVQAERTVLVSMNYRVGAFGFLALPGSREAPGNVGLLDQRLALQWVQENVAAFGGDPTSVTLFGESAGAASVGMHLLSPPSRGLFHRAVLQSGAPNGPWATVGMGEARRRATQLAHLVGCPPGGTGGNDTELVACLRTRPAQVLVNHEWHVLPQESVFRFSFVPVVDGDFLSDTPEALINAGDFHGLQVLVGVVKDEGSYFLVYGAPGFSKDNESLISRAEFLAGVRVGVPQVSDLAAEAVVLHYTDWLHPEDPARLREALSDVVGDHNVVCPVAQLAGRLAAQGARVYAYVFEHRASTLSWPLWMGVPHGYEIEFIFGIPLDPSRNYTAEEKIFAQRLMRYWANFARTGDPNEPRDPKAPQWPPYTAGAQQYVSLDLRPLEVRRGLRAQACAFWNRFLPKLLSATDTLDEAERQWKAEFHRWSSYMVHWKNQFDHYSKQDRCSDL
T4 sequence (P13569 whole entry): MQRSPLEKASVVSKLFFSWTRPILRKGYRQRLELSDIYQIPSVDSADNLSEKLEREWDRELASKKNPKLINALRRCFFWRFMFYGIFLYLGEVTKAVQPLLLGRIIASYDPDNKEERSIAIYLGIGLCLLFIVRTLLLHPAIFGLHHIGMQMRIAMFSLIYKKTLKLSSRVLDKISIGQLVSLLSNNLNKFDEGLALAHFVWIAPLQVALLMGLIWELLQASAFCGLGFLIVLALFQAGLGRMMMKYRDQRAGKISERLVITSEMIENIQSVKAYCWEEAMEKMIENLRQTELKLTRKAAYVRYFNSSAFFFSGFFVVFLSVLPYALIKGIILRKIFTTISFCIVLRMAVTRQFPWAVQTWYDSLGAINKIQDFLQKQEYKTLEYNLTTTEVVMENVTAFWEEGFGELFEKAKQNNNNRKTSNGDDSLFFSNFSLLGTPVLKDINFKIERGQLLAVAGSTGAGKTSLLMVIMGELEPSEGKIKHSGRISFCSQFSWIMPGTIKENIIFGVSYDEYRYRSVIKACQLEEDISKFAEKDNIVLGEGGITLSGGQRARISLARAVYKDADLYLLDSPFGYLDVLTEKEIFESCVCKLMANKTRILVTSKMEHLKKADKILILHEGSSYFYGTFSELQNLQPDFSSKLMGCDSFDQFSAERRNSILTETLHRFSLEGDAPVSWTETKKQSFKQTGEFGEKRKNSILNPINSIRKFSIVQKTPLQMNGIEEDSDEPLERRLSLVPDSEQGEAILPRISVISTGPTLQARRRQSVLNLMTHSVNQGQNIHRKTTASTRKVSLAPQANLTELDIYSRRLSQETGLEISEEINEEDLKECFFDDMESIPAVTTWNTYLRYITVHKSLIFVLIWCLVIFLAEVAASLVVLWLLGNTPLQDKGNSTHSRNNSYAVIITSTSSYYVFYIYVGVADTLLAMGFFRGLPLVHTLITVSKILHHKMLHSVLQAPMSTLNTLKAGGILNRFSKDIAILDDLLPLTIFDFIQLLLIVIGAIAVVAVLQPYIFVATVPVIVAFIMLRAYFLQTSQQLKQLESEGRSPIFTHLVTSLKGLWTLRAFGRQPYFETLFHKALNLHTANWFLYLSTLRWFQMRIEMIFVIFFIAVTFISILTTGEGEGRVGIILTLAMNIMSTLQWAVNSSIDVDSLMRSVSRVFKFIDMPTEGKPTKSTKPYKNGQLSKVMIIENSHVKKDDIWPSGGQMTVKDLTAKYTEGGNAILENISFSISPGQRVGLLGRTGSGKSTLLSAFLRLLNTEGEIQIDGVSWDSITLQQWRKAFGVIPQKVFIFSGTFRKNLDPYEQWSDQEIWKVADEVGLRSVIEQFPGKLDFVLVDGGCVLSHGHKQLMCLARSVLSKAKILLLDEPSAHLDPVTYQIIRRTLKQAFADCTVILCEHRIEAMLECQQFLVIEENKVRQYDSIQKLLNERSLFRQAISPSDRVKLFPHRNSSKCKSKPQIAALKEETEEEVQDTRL
Telomerase reverse transcriptase, sequence (O14746 whole entry): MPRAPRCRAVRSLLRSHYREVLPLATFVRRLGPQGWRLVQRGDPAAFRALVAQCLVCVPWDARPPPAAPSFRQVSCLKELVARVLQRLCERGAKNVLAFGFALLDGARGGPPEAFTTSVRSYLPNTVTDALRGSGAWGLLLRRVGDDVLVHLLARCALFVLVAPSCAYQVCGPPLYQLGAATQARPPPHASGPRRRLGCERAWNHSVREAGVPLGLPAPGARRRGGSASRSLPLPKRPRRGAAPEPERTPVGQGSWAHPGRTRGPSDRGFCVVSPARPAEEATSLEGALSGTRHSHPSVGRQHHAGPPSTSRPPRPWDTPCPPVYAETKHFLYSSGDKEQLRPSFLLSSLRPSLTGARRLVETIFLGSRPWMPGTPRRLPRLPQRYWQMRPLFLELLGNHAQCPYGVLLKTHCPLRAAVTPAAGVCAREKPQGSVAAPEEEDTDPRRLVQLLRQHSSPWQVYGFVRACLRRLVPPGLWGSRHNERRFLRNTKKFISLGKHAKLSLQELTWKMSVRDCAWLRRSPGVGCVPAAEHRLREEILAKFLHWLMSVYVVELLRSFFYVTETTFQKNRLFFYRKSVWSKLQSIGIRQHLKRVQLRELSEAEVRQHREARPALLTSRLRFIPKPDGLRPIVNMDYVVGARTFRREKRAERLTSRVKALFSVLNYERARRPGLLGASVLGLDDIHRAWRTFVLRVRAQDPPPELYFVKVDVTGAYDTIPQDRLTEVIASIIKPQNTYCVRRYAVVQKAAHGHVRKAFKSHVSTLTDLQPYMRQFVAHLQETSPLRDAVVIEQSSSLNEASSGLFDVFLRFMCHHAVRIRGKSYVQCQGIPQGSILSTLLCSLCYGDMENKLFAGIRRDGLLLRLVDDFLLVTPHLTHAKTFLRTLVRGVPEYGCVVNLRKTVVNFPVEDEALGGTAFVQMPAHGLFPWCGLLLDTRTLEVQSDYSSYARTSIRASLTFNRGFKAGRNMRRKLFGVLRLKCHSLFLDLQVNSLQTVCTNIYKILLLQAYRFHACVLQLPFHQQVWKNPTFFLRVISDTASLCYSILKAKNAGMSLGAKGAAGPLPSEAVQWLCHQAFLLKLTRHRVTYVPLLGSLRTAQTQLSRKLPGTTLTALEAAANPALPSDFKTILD

Regarding `COc1cccc2oc(-c3ccc(F)cc3)cc(=O)c12`, in the series listed under Rattus norvegicus, the 50% effective dose (ED50) amounted to 5.5 mg/kg.
Take `Cc1ccc(-c2oc3ccc(Cl)cc3c(=O)c2O)c(OC(C)C)c1`: the affinity at Adenosine receptor A3, expressed as Ki, was 0.56 µM.
`COc1cc([C@H]2Oc3cc(-c4cc(=O)c5ccccc5o4)ccc3O[C@@H]2CO)ccc1O` displayed an MIC in the series on Staphylococcus aureus of 0.08 µg/mL (≈ 0.185 µM).
On to `O=c1cc(-c2ccc(O)c(O)c2)oc2cc(O[C@@H]3O[C@H](CO)[C@@H](O)[C@H](O)[C@H]3OS(=O)(=O)O)cc(O)c12`, for which the results for the IC50 in [1] and in series [2] were 400 µM and 2100 µM, respectively.
As for `O=c1cc(-c2ccc(Oc3c(O)cc(O)c4c(=O)cc(-c5ccc(O)cc5)oc34)cc2)oc2cc(O)cc(O)c12` [LANAROFLAVONE], the 50% inhibitory concentration (IC50) in the series on Plasmodium falciparum came to 0.48 µM.
Compound `O=c1cc(-c2ccc(O)cc2)oc2cc(O)c(O)c(O)c12` [SCUTELLAREIN] showed a half-inhibitory concentration (IC50) in series [3] of 7200 µM.
As to `O=c1cc(-c2ccc(CN3CCCCC3)cc2)oc2ccccc12`, the IC50 on Acetylcholinesterase stood at 0.055 µM.
On to `O=c1cc(-c2cccc([N+](=O)[O-])c2)oc2ccc([N+](=O)[O-])cc12`, for which the inhibitory constant (Ki) in [4] came to 0.0015 µM.
Consider `O=c1cc(-c2ccc(O)c(O)c2)oc2cc(O)cc(O)c12` [LUTEOLIN], for which the results for the IC50 (in the series on LNCaP; in series [6]) were 5 µM and 99 µM, respectively. The same compound returned an inhibition in the series listed under Homo sapiens of 36%. Moreover, the Ki in series [5] was 2.9 µM.
Compound `COc1cc2oc(-c3ccc(CN4CCCC4)cc3)cc(=O)c2cc1OC` showed an IC50 at Acetylcholinesterase of 0.034 µM.
`N=C(NC1CCCCC1)c1ccc2nc(-c3ccc4oc(-c5ccccc5)cc(=O)c4c3)[nH]c2c1` had an MIC against Staphylococcus aureus of 1.56 µg/mL (≈ 3.37 µM).
In the series with Plasmodium falciparum, `O=C1c2c(O)cc(O)cc2O[C@H](c2ccc(O)cc2)[C@H]1[C@@H]1C(=O)c2c(O)cc(O)cc2O[C@H]1c1ccc(O)cc1` came in with an IC50 of 7.3 µM.
For the compound `COc1c(OC)c(OC)c2c(=O)c(OC)c(-c3ccc4c(c3)OCO4)oc2c1OC`, the inhibition constant (Ki) in series [7] was 76.5 µM.
As to `O=c1cc(-c2ccc(O)cc2)oc2cc(O)cc(O)c12` [APIGENIN], the inhibition constant (Ki) in [8] stood at 81 µM; in [5], 0.52 µM. This compound also registered an EC50 in series [9] of 9 µM.
Turning to `Cc1ccc2oc(-c3cc(Br)ccc3O)cc(=O)c2c1`, in [4], the inhibitory constant (Ki) is 0.0009 µM.
For `O=c1cc(-c2cccc([N+](=O)[O-])c2)oc2ccc(Br)cc12`, the Ki in series [4] stood at 0.0015 µM.
`O=c1cc(-c2ccc(OCc3ccc(Cl)nc3)cc2)oc2cc(OCc3ccc(Cl)nc3)ccc12` had a concentration for half-maximal inhibition (IC50) in series [10] of 36.5 µM.
Turning to `O=c1cc(-c2ccc(OCCOCCN(CCOCCOc3ccc(-c4cc(=O)c5ccccc5o4)cc3)Cc3ccncc3)cc2)oc2ccccc12`, the half-maximal inhibitory concentration (IC50) with Leishmania came out at 0.13 µM.
For the compound `O=c1cc(-c2ccccc2)oc2cc(O)c(O)c(O)c12` [BAICALEIN], the concentration for half-maximal inhibition (IC50) in [11] was determined as 52 µM; in series [6], 93 µM; in series [12] it was 12800 µM.
